The conditions of data set [1]: in vivo; cited from earlier work.
A short description of data set [2]: Intraocular C-peptide levels by human C-peptide ELISA after intravitreal injection. The data set is classed as in vivo, C57BL/6 mice. The settings on record: C57BL/6, mouse, 1.2 ug, single intravitreal injection of equimolar K9-C-peptide (20 μg) or human C-peptide (1.2 μg), whole eyeball lysate, 50 kDa cutoff filtrate, n = 6, read-out: intraocular human C-peptide level at 1 day after injection. On the procedure: To analyze the levels of C-peptide released from intravitreal K9-C-peptide depots, mice were anesthetized with 3% isoflurane and intravitreally injected with a total volume of 2 μL containing 0.6 mg/mL (1.2 μg) C-peptide or 10 mg/mL (20 μg) K9-C-peptide. Proteins were extracted from whole eyeballs using lysis buffer containing 50 mmol/L Tris (pH 7.5), 150 mmol/L sodium chloride, 1% Triton X-100, protease inhibitor cocktail (Roche, Basel, Switzerland), 25 mmol/L β-glycerophosphate, and 2 mmol/L sodium orthovanadate. The lysates were centrifuged at 14,000 rpm for 15 min, and then the supernatants were centrifuged at 8,000 rpm for 10 min using Amicon® Ultra 4 mL centrifugal filters with a molecular weight cutoff of 50 kDa (MilliporeSigma). C-peptide levels in the filtered supernatants (n = 6) were measured using a human C-peptide ELISA kit (MilliporeSigma) according to the manufacturer's protocol.
On the technique in general: In an ELISA, binding on a coated surface is turned into a signal by an enzyme label.

For `CC(C)C[C@H](NC(=O)[C@H](C)NC(=O)[C@H](CC(C)C)NC(=O)[C@@H]1CCCN1C(=O)[C@H](CCC(N)=O)NC(=O)[C@H](CC(C)C)NC(=O)[C@H](CO)NC(=O)CNC(=O)[C@H](C)NC(=O)CNC(=O)[C@@H]1CCCN1C(=O)CNC(=O)CNC(=O)CNC(=O)[C@H](CC(C)C)NC(=O)[C@H](CCC(=O)O)NC(=O)[C@@H](NC(=O)[C@H](CCC(N)=O)NC(=O)CNC(=O)[C@@H](NC(=O)[C@H](CCC(N)=O)NC(=O)[C@H](CC(C)C)NC(=O)[C@H](CC(=O)O)NC(=O)[C@H](CCC(=O)O)NC(=O)[C@H](C)NC(=O)[C@@H](N)CCC(=O)O)C(C)C)C(C)C)C(=O)N[C@@H](CCC(=O)O)C(=O)NCC(=O)N[C@@H](CO)C(=O)N[C@@H](CC(C)C)C(=O)N[C@@H](CCC(N)=O)C(=O)O` [human C-peptide], the circulating half-life in data set [1] is recorded as 30 min. Moreover, the level at time molar at 24 h in data set [2] came out at 0.07 nM.

These data come from PMC10196831, “Therapeutic effect of ultra-long-lasting human C-peptide delivery against hyperglycemia-induced neovascularization in diabetic retinopathy” (Theranostics, 2023).
